# According to ChEMBL document CHEMBL4680148, “Semisynthesis and biological evaluation of amidochelocardin derivatives as broad-spectrum antibiotics” (Eur J Med Chem, 2020):
# Assays:
# Pseudomonas aeruginosa [1] = assay: Antibacterial activity against Pseudomonas aeruginosa PA14 delta mexAB assessed as minimum inhibitory concentration required for inhibition of bacterial growth measured after 18 hrs by microdilution method; format: functional
# Escherichia coli [2] = assay: Antibacterial activity against Escherichia coli assessed as minimum inhibitory concentration required for inhibition of bacterial growth in presence of outer membrane permeabilizer PMBN measured after 18 hrs by microdilution method; format: functional
# Staphylococcus aureus [3] = assay: Antibacterial activity against Staphylococcus aureus DSM-11822 assessed as minimum inhibitory concentration required for inhibition of bacterial growth measured after 18 hrs by microdilution method; format: functional
# Pseudomonas aeruginosa [4] = assay: Antibacterial activity against Pseudomonas aeruginosa PA14 assessed as minimum inhibitory concentration required for inhibition of bacterial growth measured after 18 hrs by microdilution method; format: functional
# Escherichia coli [5] = assay: Antibacterial activity against Escherichia coli assessed as minimum inhibitory concentration required for inhibition of bacterial growth measured after 18 hrs by microdilution method; format: functional
# Klebsiella pneumoniae [6] = assay: Antibacterial activity against Klebsiella pneumoniae DSM-30104 assessed as minimum inhibitory concentration required for inhibition of bacterial growth measured after 18 hrs by microdilution method; format: functional
# Enterococcus faecium = assay: Antibacterial activity against Enterococcus faecium DSM-20477 assessed as minimum inhibitory concentration required for inhibition of bacterial growth measured after 18 hrs by microdilution method; format: functional
# Staphylococcus aureus [7] = assay: Antibacterial activity against Staphylococcus aureus Newman assessed as minimum inhibitory concentration required for inhibition of bacterial growth measured after 18 hrs by microdilution method; format: functional
# Escherichia coli [8] = assay: Antibacterial activity against Escherichia coli DSM-1116 assessed as minimum inhibitory concentration required for inhibition of bacterial growth in presence of outer membrane permeabilizer PMBN measured after 18 hrs by microdilution method; format: functional
# Escherichia coli [9] = assay: Antibacterial activity against Escherichia coli DSM-1116 assessed as minimum inhibitory concentration required for inhibition of bacterial growth measured after 18 hrs by microdilution method; format: functional
# [10] = Stability of the compound in Escherichia coli growth medium assessed as intact compound by LC-MS analysis; format: physicochemical
# Pseudomonas aeruginosa [11] = assay: Antibacterial activity against Pseudomonas aeruginosa PA14 delta mexAB assessed as minimum inhibitory concentration required for inhibition of bacterial growth in presence of outer membrane permeabilizer PMBN measured after 18 hrs by microdilution method; format: functional
# [12] = Stability of the compound in Escherichia coli assessed as intact compound by LC-MS analysis; format: ADME
# Staphylococcus aureus [13] = assay: Antibacterial activity against Staphylococcus aureus DSM-346 assessed as minimum inhibitory concentration required for inhibition of bacterial growth measured after 18 hrs by microdilution method; format: functional
# Klebsiella pneumoniae [14] = assay: Antibacterial activity against Klebsiella pneumoniae DSM-30104 assessed as minimum inhibitory concentration required for inhibition of bacterial growth in presence of outer membrane permeabilizer PMBN measured after 18 hrs by microdilution method; format: functional
# Pseudomonas aeruginosa [15] = assay: Antibacterial activity against Pseudomonas aeruginosa DSM-1128 assessed as minimum inhibitory concentration required for inhibition of bacterial growth measured after 18 hrs by microdilution method; format: functional
MIC (Pseudomonas aeruginosa [1]) [µg/mL],MIC (Staphylococcus aureus [3]) [µg/mL],MIC (Pseudomonas aeruginosa [4]) [µg/mL],MIC (Klebsiella pneumoniae [6]) [µg/mL],MIC (Enterococcus faecium) [µg/mL],MIC (Staphylococcus aureus [7]) [µg/mL],further results,SMILES
> 64,0.125,> 64,> 64,–,–,MIC (Escherichia coli [2]): 0.5 µg/mL; MIC (Escherichia coli [5]): > 64 µg/mL,Cc1ccc2c(C)c3c(c(O)c2c1O)C(=O)[C@]1(O)C(=O)C(C(N)=O)=C(O)[C@H](N2C(=O)c4ccccc4C2=O)[C@@H]1C3
–,1,> 64,> 64,–,–,MIC (Escherichia coli [2]): 2 µg/mL; MIC (Escherichia coli [5]): 32 µg/mL,COc1ccc(-c2cc(C)c(O)c3c(O)c4c(c(C)c23)C[C@H]2[C@@H](N)C(O)=C(C(N)=O)C(=O)[C@@]2(O)C4=O)cc1
32,–,–,–,> 64,64,MIC (Escherichia coli [8]): 8 µg/mL; MIC (Escherichia coli [9]): 16 µg/mL,Cc1ccc2c(C)c3c(c(O)c2c1O)C(=O)[C@]1(O)C(=O)C(C(N)=O)=C(O)[C@H](NC(=O)CCN)[C@@H]1C3
–,–,–,–,4,4,Stabilty [10]: Stable; MIC (Pseudomonas aeruginosa [11]): > 64 µg/mL; Stabilty [12]: Stable; MIC (Escherichia coli [8]): 64 µg/mL; MIC (Escherichia coli [9]): > 64 µg/mL,Cc1ccc2c(C)c3c(c(O)c2c1OC(=O)c1ccc(Br)cc1)C(=O)[C@]1(O)C(=O)C(C(N)=O)=C(O)[C@H](N)[C@@H]1C3
–,> 64,> 64,> 64,32,–,–,Cc1ccc2c(C)c3c(c(O)c2c1O)C(=O)[C@]1(O)C(=O)C(C(N)=O)=C(O)[C@H](NS(C)(=O)=O)[C@@H]1C3
–,–,> 64,> 64,> 64,–,MIC (Staphylococcus aureus [13]): > 64 µg/mL,Cc1ccc2c(C)c3c(c(O)c2c1O)C(=O)[C@]1(O)C(=O)C(C(N)=O)=C(O)[C@H](N(C)C)[C@@H]1C3
64,4,> 64,> 64,–,–,–,COc1ccc(C(=O)N[C@H]2C(O)=C(C(N)=O)C(=O)[C@@]3(O)C(=O)c4c(c(C)c5ccc(C)c(O)c5c4O)C[C@@H]23)cc1
–,–,–,–,16,16,Stabilty [10]: Stable; MIC (Pseudomonas aeruginosa [11]): 1 µg/mL; Stabilty [12]: Stable; MIC (Escherichia coli [9]): 8 µg/mL,CC(=O)Oc1c(C)ccc2c(C)c3c(c(O)c12)C(=O)[C@]1(O)C(=O)C(C(N)=O)=C(O)[C@H](N)[C@@H]1C3
0.5,8,16,2,4,–,Stabilty [10]: Unstable; Stabilty [12]: Unstable; MIC (Escherichia coli [9]): 0.5 µg/mL,Cc1ccc2c(C)c3c(c(O)c2c1O)C(=O)[C@]1(O)C(=O)C(C(N)=O)=C(O)[C@H](N)[C@@H]1C3.O=C([O-])CC(O)(CC(=O)[O-])C(=O)[O-].[Na+].[Na+].[Na+]
–,–,–,8,–,4,MIC (Klebsiella pneumoniae [14]): 8 µg/mL; MIC (Pseudomonas aeruginosa [15]): 16 µg/mL,Cc1cc(Cl)c2c(C)c3c(c(O)c2c1O)C(=O)[C@]1(O)C(=O)C(C(N)=O)=C(O)[C@H](N)[C@@H]1C3
4,8,64,2,8,–,MIC (Escherichia coli [9]): 2 µg/mL,CC(=O)C1=C(O)[C@H](N)[C@@H]2Cc3c(c(O)c4c(O)c(C)ccc4c3C)C(=O)[C@]2(O)C1=O.O=C([O-])CC(O)(CC(=O)[O-])C(=O)[O-].[Na+].[Na+].[Na+]
–,–,> 64,> 64,> 64,–,MIC (Staphylococcus aureus [13]): > 64 µg/mL,CN[C@H]1C(O)=C(C(N)=O)C(=O)[C@@]2(O)C(=O)c3c(c(C)c4ccc(C)c(O)c4c3O)C[C@@H]12
–,–,–,8,–,8,MIC (Klebsiella pneumoniae [14]): 4 µg/mL; MIC (Pseudomonas aeruginosa [15]): 32 µg/mL,Cc1cc(Br)c2c(C)c3c(c(O)c2c1O)C(=O)[C@]1(O)C(=O)C(C(N)=O)=C(O)[C@H](N)[C@@H]1C3
32,–,–,–,> 64,> 64,MIC (Escherichia coli [8]): 32 µg/mL; MIC (Escherichia coli [9]): 54 µg/mL,Cc1ccc2c(C)c3c(c(O)c2c1O)C(=O)[C@]1(O)C(=O)C(C(N)=O)=C(O)[C@H](NC(=O)CN2CCN(C)CC2)[C@@H]1C3
> 64,–,–,–,8,4,MIC (Escherichia coli [8]): 2 µg/mL; MIC (Escherichia coli [9]): 32 µg/mL,C=CC(=O)N[C@H]1C(O)=C(C(N)=O)C(=O)[C@@]2(O)C(=O)c3c(c(C)c4ccc(C)c(O)c4c3O)C[C@@H]12
–,–,–,> 64,–,32,MIC (Klebsiella pneumoniae [14]): 64 µg/mL; MIC (Pseudomonas aeruginosa [15]): > 64 µg/mL,CC1=CC(=O)c2c(C)c3c(c(O)c2C1=O)C(=O)[C@]1(O)C(=O)C(C(N)=O)=C(O)[C@H](N)[C@@H]1C3
> 64,2,> 64,64,–,–,MIC (Escherichia coli [2]): 8 µg/mL; MIC (Escherichia coli [5]): > 64 µg/mL,Cc1ccc2c(C)c3c(c(O)c2c1O)C(=O)[C@]1(O)C(=O)C(C(N)=O)=C(O)[C@H](N2C(=O)C=CC2=O)[C@@H]1C3
–,> 64,> 64,> 64,0.25,–,–,Cc1ccc2c(C)c3c(c(O)c2c1O)C(=O)[C@]1(O)C(=O)C(C(N)=O)=C(O)[C@H](NC(=O)OCc2ccccc2)[C@@H]1C3
4,4,8,8,–,–,–,Cc1cc(F)c2c(C)c3c(c(O)c2c1O)C(=O)[C@]1(O)C(=O)C(C(N)=O)=C(O)[C@H](N)[C@@H]1C3
–,> 64,> 64,> 64,> 64,–,–,Cc1cc([N+](=O)[O-])c2c(C)c3c(c(O)c2c1O)C(=O)[C@]1(O)C(=O)C(C(N)=O)=C(O)[C@H](N)[C@@H]1C3
64,2,> 64,16,–,–,–,CCOC(=O)N[C@H]1C(O)=C(C(N)=O)C(=O)[C@@]2(O)C(=O)c3c(c(C)c4ccc(C)c(O)c4c3O)C[C@@H]12
–,> 64,> 64,> 64,32,–,–,CC(=O)N[C@H]1C(O)=C(C(N)=O)C(=O)[C@@]2(O)C(=O)c3c(c(C)c4ccc(C)c(O)c4c3O)C[C@@H]12
–,0.5,> 64,32,–,–,MIC (Escherichia coli [2]): 8 µg/mL; MIC (Escherichia coli [5]): > 64 µg/mL,Cc1cc(C)c(-c2cc(C)c(O)c3c(O)c4c(c(C)c23)C[C@H]2[C@@H](N)C(O)=C(C(N)=O)C(=O)[C@@]2(O)C4=O)c(C)c1
–,1,> 64,> 64,–,–,MIC (Escherichia coli [2]): 8 µg/mL; MIC (Escherichia coli [5]): 64 µg/mL,Cc1ccc2c(C)c3c(c4c2c1O[Si](C(C)(C)C)(C(C)(C)C)O4)C(=O)[C@]1(O)C(=O)C(C(N)=O)=C(O)[C@H](N)[C@@H]1C3
